Experimental data taken from patent US11453647B2, “Benzimidazole derivatives as adenosine receptor antagonists” (Merck Patent GmbH, priority 2017, dated 2022).

Assays:
human A1 receptor = target: T1, human A1 receptor (Homo sapiens, UniProt P30542); assay: functional cAMP (HTRF) assay, recombinant CHO cells expressing human A1 receptor, forskolin, agonist CPA; format: cell-based
T1 construct: expressed in transfected cells; host or cells: CHO
T1 sequence (P30542 1-326): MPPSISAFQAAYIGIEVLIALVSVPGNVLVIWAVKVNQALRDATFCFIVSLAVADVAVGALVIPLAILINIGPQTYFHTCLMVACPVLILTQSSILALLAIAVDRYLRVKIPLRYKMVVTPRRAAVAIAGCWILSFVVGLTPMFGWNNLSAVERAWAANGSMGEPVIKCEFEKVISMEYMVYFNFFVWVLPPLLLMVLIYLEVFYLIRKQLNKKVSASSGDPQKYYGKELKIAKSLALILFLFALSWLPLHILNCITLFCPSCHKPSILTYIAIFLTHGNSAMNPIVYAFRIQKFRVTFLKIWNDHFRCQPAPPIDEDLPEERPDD
Procedure, shortened: (§1)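 CHO cells (hA1 or hA3) + forskolin + test cpd + agonist (CPA/A1, IB-MECA/A3), 30 min; HTRF cAMP readout; normalized vs inhibitor and DMSO controls, curve fit.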

human A3 receptor = target: T2, human A3 receptor (Homo sapiens, UniProt P0DMS8); assay: functional cAMP (HTRF) assay, recombinant CHO cells expressing human A3 receptor, forskolin, agonist IB-MECA; format: cell-based
T2 construct: expressed in transfected cells; host or cells: CHO
T2 sequence (P0DMS8 1-318): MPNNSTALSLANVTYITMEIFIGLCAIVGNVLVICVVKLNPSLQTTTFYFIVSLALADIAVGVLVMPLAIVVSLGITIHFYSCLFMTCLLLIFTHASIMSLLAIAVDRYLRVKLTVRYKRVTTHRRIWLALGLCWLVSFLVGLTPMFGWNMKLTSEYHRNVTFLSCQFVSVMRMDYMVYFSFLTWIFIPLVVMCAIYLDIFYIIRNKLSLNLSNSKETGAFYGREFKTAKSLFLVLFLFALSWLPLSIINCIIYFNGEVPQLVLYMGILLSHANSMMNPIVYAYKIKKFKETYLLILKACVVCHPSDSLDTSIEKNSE
Procedure, shortened: as §1

[1] = pharmacokinetic properties in mouse after single intravenous and oral administration; format: in vivo; details: PK data in mouse; for clearance / half-life / Cmax / Vd: female, plasma, 0.2 mg/kg; for Cmax: dose-normalized to 1 mg/kg; for Vd: read-out: Vss
Source text: The objective of the study was to obtain information on the pharmacokinetic properties of the compounds of the present invention in female Wistar rats/mice following single intravenous and oral administration.
Female Wistar rats/mice (n=6) received either a single intravenous (bolus) injection or an oral administration (by gavage) of the tested compound.
The concentrations of the compounds in plasma, feces were quantified using an UPLC method with tandem mass spectrometric detection (LC-MS/MS) previously developed at the ‘Institute of Drug Metabolism and Pharmacokinetics’. The LC-MS/MS system consisted of a Waters Acquity UPLC coupled to an AB Sciex mass spectrometer API 5500 Q-trap. […] The detection of the compounds was performed using multiple reaction monitoring in the positive ionization mode. Plasma samples were spiked with internal standard (20 μl) and the analyte was extracted from the matrix using tertiary-butyl methyl ether (tBME). The organic phase was evaporated to dryness under a stream of nitrogen. The residue was dissolved in acetonitrile/0.1% formic acid for LC-MS/MS analysis. Feces samples were homogenized with 4-times their volume of an ethanol/water mixture (4:1, v/v). Aliquots of the aqueous-ethanolic extracts were spiked with internal standard, diluted with acetonitrile/water (1:1, v/v) and directly injected into the LC-MS/MS system.
Pharmacokinetic parameters Cmax and tmax were taken from the observed data. […] AUC values were calculated by non-compartmental analysis using the linear up/log down method. Numerical data for mean plasma concentrations and derived pharmacokinetic parameters were rounded to 3 significant digits for presentation.

human A2A receptor = target: T3, human A2A receptor (Homo sapiens, UniProt P29274); assay: functional cAMP (HTRF) assay, recombinant HEK293 cells expressing human A2A receptor, agonist NECA; format: cell-based
T3 construct: expressed in transfected cells; host or cells: HEK293
T3 sequence (P29274 whole entry): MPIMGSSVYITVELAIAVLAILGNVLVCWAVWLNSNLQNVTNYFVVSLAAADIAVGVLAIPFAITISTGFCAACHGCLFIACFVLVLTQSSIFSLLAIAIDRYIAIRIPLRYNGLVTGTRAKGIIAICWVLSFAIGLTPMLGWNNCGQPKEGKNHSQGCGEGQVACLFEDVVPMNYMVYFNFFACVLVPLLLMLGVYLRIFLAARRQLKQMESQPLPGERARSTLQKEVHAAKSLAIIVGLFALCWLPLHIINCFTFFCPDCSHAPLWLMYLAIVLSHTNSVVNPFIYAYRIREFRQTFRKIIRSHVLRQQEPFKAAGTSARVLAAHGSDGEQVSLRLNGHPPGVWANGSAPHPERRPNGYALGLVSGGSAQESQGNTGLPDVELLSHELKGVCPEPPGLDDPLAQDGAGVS

A2B receptors = target: T4, A2B receptors (Homo sapiens, UniProt P29275); assay: functional cAMP (HTRF) assay, recombinant HEK293 cells expressing human A2B receptor, agonist NECA; format: cell-based; set-up: expressed in transfected cells; host or cells: HEK293
T4 sequence (P29275 1-332): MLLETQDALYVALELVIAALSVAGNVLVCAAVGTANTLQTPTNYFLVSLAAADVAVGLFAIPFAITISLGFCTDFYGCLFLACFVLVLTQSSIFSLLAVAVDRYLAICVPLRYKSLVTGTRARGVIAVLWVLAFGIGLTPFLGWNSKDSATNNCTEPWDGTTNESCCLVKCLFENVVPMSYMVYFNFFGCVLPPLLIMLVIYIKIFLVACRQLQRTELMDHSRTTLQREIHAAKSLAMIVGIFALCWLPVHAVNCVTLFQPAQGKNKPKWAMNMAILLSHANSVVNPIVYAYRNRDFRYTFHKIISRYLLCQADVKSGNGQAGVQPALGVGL

| IC50 (human A1 receptor) [µM] | IC50 (human A3 receptor) [µM] | IC50 (human A2A receptor) [µM] | IC50 (A2B receptors) [µM] | Feces iv ([1]; @0.08 (dose, unit not given)) | SMILES | Feces iv ([1]; @0.2 (dose, unit not given)) | clearance [1] [mL/min/kg] | half-life [1] [min] | Cmax [1] [ng/mL] | Vd [1] [L/kg] |
| --- | --- | --- | --- | --- | --- | --- | --- | --- | --- | --- |
| < 1 | < 1 | < 0.01 | < 1 | – | COc1ccc(-c2ccccc2)c2nc(NC(=O)N3CCC(C)(O)CC3)[nH]c12 [compound 12, 4-Hydroxy-4-methyl-piperidine-1-carboxylic acid (7-methoxy-4-phenyl-1H-benzoimidazol-2-yl)-amide] | 27@0.2% | 11.4 | 42.6 | 1820 | 0.568 |
| – | – | – | – | 38@0.08% | COc1ccc(N2CCOCC2)c2nc(NC(=O)N3CCC(C)(O)CC3)[nH]c12 [compound 21, 4-hydroxy-N-(7-methoxy-4-morpholino-1H-benzimidazol-2-yl)-4-methyl-piperidine-1-carboxamide] | – | 12.7 | 50.3 | 2650 | 0.508 |
| < 1 | < 1 | < 0.1 | < 0.1 | – | COCCn1cc(C(=O)Nc2nc3c(-c4ccc5[nH]nc(C)c5c4)ccc(OC)c3[nH]2)cn1 [compound 282, N-[7-methoxy-4-(3-methyl-1H-indazol-5-yl)-1H-1,3-benzodiazol-2-yl]-1-(2-methoxyethyl)-1H-pyrazole-4-carboxamide] | – | – | – | – | – |
| < 1 | < 1 | < 0.1 | < 0.01 | – | COc1ccc(-c2ccccc2)c2nc(NC(=O)c3ccc(N4C(=O)CCC4=O)cc3)[nH]c12 [compound 285, 4-(2,5-dioxopyrrolidin-1-yl)-N-(7-methoxy-4-phenyl-1H-1,3-benzodiazol-2-yl)benzamide] | – | – | – | – | – |
| > 1 | < 1 | < 0.1 | < 1 | – | COc1ccc(C2=CCOCC2)c2nc(NC(=O)C3CC3)[nH]c12 [compound 314, N-[4-(3,6-dihydro-2H-pyran-4-yl)-7-methoxy-1H-1,3-benzodiazol-2-yl]cyclopropanecarboxamide] | – | – | – | – | – |
| > 1 | < 1 | < 0.1 | < 0.1 | – | COc1ccc(-c2cccnc2)c2nc(NC(=O)C3CC3)[nH]c12 [compound 315, N-[7-methoxy-4-(pyridin-3-yl)-1H-1,3-benzodiazol-2-yl]cyclopropanecarboxamide] | – | – | – | – | – |
| < 1 | < 1 | < 0.01 | < 0.01 | – | COc1ccc(-c2ccc(F)cc2)c2nc(NC(=O)c3ccc(C(=O)N(C)C)cc3)[nH]c12 [compound 316, N4-[4-(4-fluorophenyl)-7-methoxy-1H-1,3-benzodiazol-2-yl]-N1,N1-dimethylbenzene-1,4-dicarboxamide] | – | – | – | – | – |
| < 1 | < 1 | < 0.01 | < 0.01 | – | COc1ccc(-c2ccc(F)cc2)c2nc(NC(=O)c3ccc(N4C(=O)CCC4=O)cc3)[nH]c12 [compound 317, 4-(2,5-dioxopyrrolidin-1-yl)-N-[4-(4-fluorophenyl)-7-methoxy-1H-1,3-benzodiazol-2-yl]benzamide] | – | – | – | – | – |
| < 0.1 | < 0.1 | < 0.01 | < 0.01 | – | COc1ccc(-c2ccc(F)cc2)c2nc(NC(=O)c3cnn(C)c3)[nH]c12 [compound 318, N-[4-(4-fluorophenyl)-7-methoxy-1H-1,3-benzodiazol-2-yl]-1-methyl-1H-pyrazole-4-carboxamide] | – | – | – | – | – |

Second part, the molecule before the results:

| SMILES | IC50 (human A1 receptor) [µM] | IC50 (human A3 receptor) [µM] | IC50 (human A2A receptor) [µM] | IC50 (A2B receptors) [µM] | Feces iv ([1]; @0.08 (dose, unit not given)) | Feces iv ([1]; @0.2 (dose, unit not given)) | clearance [1] [mL/min/kg] | half-life [1] [min] | Cmax [1] [ng/mL] | Vd [1] [L/kg] |
| --- | --- | --- | --- | --- | --- | --- | --- | --- | --- | --- |
| COc1ccc(-c2cnn(C)c2)c2nc(NC(=O)N3CCC(C)(O)CC3)[nH]c12 [compound 22, 4-Hydroxy-4-methyl-piperidine-1-carboxylic acid [7-methoxy-4-(1-methyl-1H-pyrazol-4-yl)-1H-benzoimidazol-2-yl]-amide] | – | – | – | – | – | 46@0.2% | 19.5 | 52 | 1320 | 1.02 |
| COc1ccc(N2CCOCC2)c2nc(NC(=O)c3ccnc(N4CCOCC4)c3)[nH]c12 [compound 23, N-(7-Methoxy-4-morpholin-4-yl-1H-benzoimidazol-2-yl)-2-morpholin-4-yl-isonicotinamide] | – | – | – | – | – | 11@0.2% | 10.3 | 103 | 733 | 1.54 |
| COc1ccc(-c2cnn(C)c2)c2nc(NC(=O)N3CC[C@]4(CCOC4)C3)[nH]c12 [compound 115, (5S)-N-[7-methoxy-4-(1-methyl-1H-pyrazol-4-yl)-1H-1,3-benzodiazol-2-yl]-2-oxa-7-azaspiro[4.4]nonane-7-carboxamide] | – | – | – | – | – | 8.6@0.2% | 5.4 | 59.3 | 2450 | 0.425 |
| COc1ccc(-c2cnn(C)c2)c2nc(NC(=O)N3CC[C@@]4(CCOC4)C3)[nH]c12 [compound 116, (5R)-N-[7-methoxy-4-(1-methyl-1H-pyrazol-4-yl)-1H-1,3-benzodiazol-2-yl]-2-oxa-7-azaspiro[4.4]nonane-7-carboxamide] | – | – | – | – | – | 16.9@0.2% | 12.3 | 58 | 1130 | 0.917 |
| COCCn1cc(C(=O)Nc2nc3c(-c4cccc5[nH]ncc45)ccc(OC)c3[nH]2)cn1 [compound 279, N-[4-(1H-indazol-4-yl)-7-methoxy-1H-1,3-benzodiazol-2-yl]-1-(2-methoxyethyl)-1H-pyrazole-4-carboxamide] | < 1 | < 1 | < 0.1 | < 0.1 | – | – | – | – | – | – |
| COCCn1cc(C(=O)Nc2nc3c(-c4cccc5c4CCN5)ccc(OC)c3[nH]2)cn1 [compound 283, N-[4-(2,3-dihydro-1H-indol-4-yl)-7-methoxy-1H-1,3-benzodiazol-2-yl]-1-(2-methoxyethyl)-1H-pyrazole-4-carboxamide] | > 1 | < 1 | < 0.1 | < 0.1 | – | – | – | – | – | – |
| COc1ccc(-c2ccccc2)c2nc(NC(=O)c3ccc(C(=O)N(C)C)cn3)[nH]c12 [compound 284, N2-(7-methoxy-4-phenyl-1H-1,3-benzodiazol-2-yl)-N5,N5-dimethylpyridine-2,5-dicarboxamide] | > 1 | > 1 | < 0.1 | < 0.1 | – | – | – | – | – | – |
| COc1ccc(-c2ccccc2)c2nc(NC(=O)N3CCC(F)(F)CC3)[nH]c12 [compound 287, 4,4-difluoro-N-(7-methoxy-4-phenyl-1H-1,3-benzodiazol-2-yl)piperidine-1-carboxamide] | < 1 | > 1 | < 0.1 | < 0.1 | – | – | – | – | – | – |
| COc1ccc(-c2ccccc2)c2[nH]c(NC(=O)c3ccc(C(=O)NCCO)cc3)nc12 [compound 312, N1-(2-hydroxyethyl)-N4-(4-methoxy-7-phenyl-1H-1,3-benzodiazol-2-yl)benzene-1,4-dicarboxamide] | < 1 | < 1 | < 0.01 | < 0.01 | – | – | – | – | – | – |
